Measurements as given in patent US9560851B2, “Pesticidal mixtures including spiroheterocyclic pyrrolidine diones” (Syngenta Participations AG, priority 2012, dated 2017).

Columns and labels:
[1] = test system: Myzus persicae (Green Peach Aphid); assay: Myzus persicae feeding/residual contact activity, preventive (sunflower leaf discs); assay type: in vivo; conditions: Acetamiprid alone, 6 DAT
Experimental: Myzus persicae (Green Peach Aphid):
feeding/residual contact activity, preventive
Sunflower leaf discs were placed on agar in a 24-well microtiter plate and sprayed with the DMSO test solutions of Mixtures (as provided by Table 45). After drying, the leaf discs were infested with an aphid population of mixed ages. After an incubation period of 6 DAT (days after treatment), samples were checked for mortality.

[2] = test system: Tetranychus urticae (Two-Spotted Spider Mite); assay: Tetranychus urticae feeding/contact activity, preventive (bean leaf discs); assay type: in vivo; conditions: mobile stages
Text: Tetranychus urticae (Two-Spotted Spider Mite): feeding/contact activity, preventive
Bean leaf discs on agar in 24-well microtiter plates were sprayed with the DMSO test solutions of certain Mixtures (as provided by Table 45). After drying, the leaf discs were infested with mite populations of mixed ages. 8 days later, discs were checked for mortality against mobile stages.

## C/C(=N\C#N)N(C)Cc1ccc(Cl)nc1 [Acetamiprid]
[1]; 0.1 PPM AI
  AVERAGE DEAD IN % AFTER 6 DAYS: 0%
[1]; 0.2 PPM AI
  AVERAGE DEAD IN % AFTER 6 DAYS: 0%
[1]; 0.4 PPM AI
  AVERAGE DEAD IN % AFTER 6 DAYS: 0%
[1]; 0.8 PPM AI
  AVERAGE DEAD IN % AFTER 6 DAYS: 0%
[1]; 1.6 PPM AI
  AVERAGE DEAD IN % AFTER 6 DAYS: 27%
[2]; Table 47, Acetamiprid alone, 50 PPM AI
  AVERAGE DEAD IN % AFTER 8 DAYS: 0%
[2]; Table 47, Acetamiprid alone, 100 PPM AI
  AVERAGE DEAD IN % AFTER 8 DAYS: 0%
[2]; Table 47, Acetamiprid alone, 200 PPM AI
  AVERAGE DEAD IN % AFTER 8 DAYS: 0%
[2]; Table 47, Acetamiprid alone, 400 PPM AI
  AVERAGE DEAD IN % AFTER 8 DAYS: 0%
[2]; Table 47, Acetamiprid alone, 800 PPM AI
  AVERAGE DEAD IN % AFTER 8 DAYS: 0%
[2]; Table 48, Acetamiprid alone, 50 PPM AI
  AVERAGE DEAD IN % AFTER 8 DAYS: 0%
[2]; Table 48, Acetamiprid alone, 100 PPM AI
  AVERAGE DEAD IN % AFTER 8 DAYS: 0%
[2]; Table 48, Acetamiprid alone, 200 PPM AI
  AVERAGE DEAD IN % AFTER 8 DAYS: 0%
[2]; Table 48, Acetamiprid alone, 400 PPM AI
  AVERAGE DEAD IN % AFTER 8 DAYS: 0%
[2]; Table 48, Acetamiprid alone, 800 PPM AI
  AVERAGE DEAD IN % AFTER 8 DAYS: 0%
